Laboratory results reported in ChEMBL document CHEMBL2331167, “Inhibitory effect of novel somatostatin peptide analogues on human cancer cell growth based on the selective inhibition of DNA polymerase β” (Bioorg Med Chem, 2013).
Activity calls are given as the source filed them. No cut-off for these calls is given here.

Columns and labels:
HCT-116 [1] = assay: Induction of apoptosis in p53 +/+ human HCT116 cells assessed as apoptotic cells at 13.2 uM incubated for 24 hrs by TUNEL analysis; assay type: functional
HCT-116 [2] = assay: Induction of apoptosis in p53 +/+ human HCT116 cells assessed as apoptotic cells at 13.2 uM incubated for 24 hrs by TUNEL analysis relative to p53 -/- human HCT116 cells; assay type: functional
HCT-116 [3] = assay: Induction of apoptosis in p53 +/+ human HCT116 cells assessed as DNA fragmentation at 13.2 uM incubated for 24 hrs by agarose gel electrophoresis; assay type: functional, cell-based
HCT-116 [4] = assay: Cytotoxicity against p53 +/+ human HCT116 cells assessed as growth inhibition incubated for 24 hrs by WST-1 assay; assay type: functional; settings: HCT-116, 24 h, read-out: LD50 (the source's name)
DNA polymerase iota = target: T1, DNA polymerase iota (Homo sapiens, UniProt Q9UNA4); assay: Inhibition of human DNA polymerase iota using poly(dA)/oligo(dT)18 (A/T, 2/1)/dTTP DNA template-primer substrate measured at 37 degC for 60 mins
T1 sequence (Q9UNA4 whole entry): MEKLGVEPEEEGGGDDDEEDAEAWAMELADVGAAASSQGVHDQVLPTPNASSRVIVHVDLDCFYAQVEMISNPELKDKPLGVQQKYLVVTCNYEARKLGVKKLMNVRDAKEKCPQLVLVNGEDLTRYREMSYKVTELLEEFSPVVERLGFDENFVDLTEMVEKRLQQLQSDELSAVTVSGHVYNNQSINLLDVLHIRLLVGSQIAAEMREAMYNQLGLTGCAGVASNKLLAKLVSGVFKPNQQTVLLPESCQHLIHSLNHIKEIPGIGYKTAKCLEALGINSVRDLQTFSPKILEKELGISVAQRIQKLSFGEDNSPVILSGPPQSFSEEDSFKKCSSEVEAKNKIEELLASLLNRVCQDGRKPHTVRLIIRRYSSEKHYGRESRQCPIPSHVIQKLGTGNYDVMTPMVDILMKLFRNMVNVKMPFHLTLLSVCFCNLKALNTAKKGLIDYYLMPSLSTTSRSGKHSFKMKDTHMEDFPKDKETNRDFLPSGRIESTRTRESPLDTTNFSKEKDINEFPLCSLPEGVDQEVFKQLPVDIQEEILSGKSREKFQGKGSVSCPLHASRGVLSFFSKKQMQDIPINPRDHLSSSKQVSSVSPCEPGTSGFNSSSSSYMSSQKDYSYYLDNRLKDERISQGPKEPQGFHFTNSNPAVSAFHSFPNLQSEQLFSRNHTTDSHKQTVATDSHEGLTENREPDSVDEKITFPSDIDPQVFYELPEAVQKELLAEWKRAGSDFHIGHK

DNA polymerase eta = target: T2, DNA polymerase eta (Homo sapiens, UniProt Q9Y253); assay: Inhibition of human DNA polymerase eta using poly(dA)/oligo(dT)18 (A/T, 2/1)/dTTP DNA template-primer substrate measured at 37 degC for 60 mins
T2 sequence (Q9Y253 whole entry): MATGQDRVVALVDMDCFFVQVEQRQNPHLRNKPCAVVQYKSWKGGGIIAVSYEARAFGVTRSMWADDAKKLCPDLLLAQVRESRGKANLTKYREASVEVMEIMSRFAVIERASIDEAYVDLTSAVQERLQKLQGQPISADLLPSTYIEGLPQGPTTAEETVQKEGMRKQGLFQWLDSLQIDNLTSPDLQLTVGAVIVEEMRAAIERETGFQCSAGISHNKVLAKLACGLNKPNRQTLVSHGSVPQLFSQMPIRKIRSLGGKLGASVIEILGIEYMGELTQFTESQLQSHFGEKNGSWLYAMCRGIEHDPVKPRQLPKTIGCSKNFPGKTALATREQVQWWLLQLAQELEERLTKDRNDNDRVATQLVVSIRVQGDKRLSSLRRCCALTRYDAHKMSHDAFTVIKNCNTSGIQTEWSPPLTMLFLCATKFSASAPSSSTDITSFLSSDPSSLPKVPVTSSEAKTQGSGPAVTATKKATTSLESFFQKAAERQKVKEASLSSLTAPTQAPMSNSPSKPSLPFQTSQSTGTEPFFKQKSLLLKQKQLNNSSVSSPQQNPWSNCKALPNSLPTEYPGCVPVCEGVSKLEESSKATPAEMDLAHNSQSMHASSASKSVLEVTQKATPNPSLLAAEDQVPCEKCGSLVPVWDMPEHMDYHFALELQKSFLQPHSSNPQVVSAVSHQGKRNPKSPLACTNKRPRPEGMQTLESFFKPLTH

[5] = target: T3, DNA polymerase delta catalytic subunit (Homo sapiens, UniProt P28340); assay: Inhibition of human DNA polymerase delta using poly(dA)/oligo(dT)18 (A/T, 2/1)/dTTP DNA template-primer substrate measured at 37 degC for 60 mins
T3 sequence (P28340 whole entry): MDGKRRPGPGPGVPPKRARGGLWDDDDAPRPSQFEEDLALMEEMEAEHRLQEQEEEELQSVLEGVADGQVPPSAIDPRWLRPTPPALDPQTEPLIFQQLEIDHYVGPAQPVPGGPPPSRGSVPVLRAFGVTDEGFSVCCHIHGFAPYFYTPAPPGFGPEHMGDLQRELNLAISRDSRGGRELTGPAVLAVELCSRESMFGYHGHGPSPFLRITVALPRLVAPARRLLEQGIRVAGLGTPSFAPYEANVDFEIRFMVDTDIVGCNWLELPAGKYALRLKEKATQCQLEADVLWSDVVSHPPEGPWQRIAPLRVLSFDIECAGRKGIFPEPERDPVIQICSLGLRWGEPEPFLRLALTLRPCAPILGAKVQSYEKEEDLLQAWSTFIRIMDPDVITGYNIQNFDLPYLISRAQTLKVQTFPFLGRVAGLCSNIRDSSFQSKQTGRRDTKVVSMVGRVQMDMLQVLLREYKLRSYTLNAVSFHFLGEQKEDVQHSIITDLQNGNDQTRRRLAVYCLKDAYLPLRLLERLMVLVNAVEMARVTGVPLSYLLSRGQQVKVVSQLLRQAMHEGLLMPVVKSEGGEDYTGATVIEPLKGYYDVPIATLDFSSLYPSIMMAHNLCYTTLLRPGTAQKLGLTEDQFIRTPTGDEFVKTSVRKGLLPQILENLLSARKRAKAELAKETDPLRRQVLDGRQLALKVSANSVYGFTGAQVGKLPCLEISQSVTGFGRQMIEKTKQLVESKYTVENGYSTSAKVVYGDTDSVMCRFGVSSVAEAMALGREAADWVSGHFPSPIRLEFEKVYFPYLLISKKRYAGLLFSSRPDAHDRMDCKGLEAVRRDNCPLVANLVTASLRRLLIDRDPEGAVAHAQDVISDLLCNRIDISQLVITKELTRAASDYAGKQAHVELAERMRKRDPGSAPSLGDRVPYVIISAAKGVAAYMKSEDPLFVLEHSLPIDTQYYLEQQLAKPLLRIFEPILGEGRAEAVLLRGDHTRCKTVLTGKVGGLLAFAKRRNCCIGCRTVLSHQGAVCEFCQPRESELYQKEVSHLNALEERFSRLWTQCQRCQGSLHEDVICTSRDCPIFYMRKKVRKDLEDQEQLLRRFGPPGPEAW

`CC[C@H](C)[C@H](NC(=O)[C@H](Cc1ccc(O)cc1)NC(=O)OC(C)(C)C)C(=O)Nc1cccc2ccccc12` was tested, and the “fold change (FC)” value (HCT-116 [1]) was 5, the “fold change (FC)” value (HCT-116 [2]) was 3 and the Activity (HCT-116 [3]) was “Active”. For the same molecule, the CC50 (HCT-116 [4]) was 13.2 µM, the IC50 (DNA polymerase iota) was > 200 µM and the IC50 (DNA polymerase eta) was > 200 µM. For the same molecule, the IC50 [5] was > 200 µM.
